{"source": "patent US7709014B2", "about": "“Hydroxy-oligocarboxylic esters: effects on nerve and use for cutaneous and mucocutaneous organs or sites” (priority 2005, dated 2010)", "key": {"[1]": {"test_system": "mucocutaneous organs or sites", "assay": "Topical application to mucocutaneous organs or sites: general findings on sensuous, sensational and mild anesthetic effects", "assay_type": "in vivo, human", "conditions": "for sensuous or mild anesthetic effect: topical application, same conditions as the hydroxy-oligocarboxylic esters", "description": "The present invention is based on the discovery that topical application of a hydroxy-oligocarboxylic ester, preferably a hydroxydicarboxylic ester or more preferably a hydroxytricarboxylic ester such as tripropyl citrate on topical application can produce sensuous, sensational and mild anesthetic effects on mucocutaneous organs or sites, such as lips, mouth, gum, nostrils, nipples, vulva, vagina, penis and anus. […] The sensuous and sensational effects produced by the hydroxy-oligocarboxylic ester, preferably a hydroxydicarboxylic ester or more preferably a hydroxytricarboxylic ester are quite different from the numbing effects induced by local anesthetics such as lidocaine and procaine. The sensuous, sensational and mild anesthetic effects produced by the hydroxy-oligocarboxylic ester according to the present invention generally last from a few minutes to a few hours. Such nerve-acting sensation or effect has many cosmetic, dental and dermatological applications. For example, a lipstick or lip balm comprising a hydroxy-oligocarboxylic ester, preferably a hydroxydicarboxylic ester or more preferably a hydroxytricarboxylic ester, can provide a sensuous or sensational feeling after topical application to lips of a human subject. Such sensuous action and certain anesthetic effects on nervous system produced by the hydroxy-oligocarboxylic ester can have beneficial applications such as to relieve itch or pain of lips, mouth, gum, nostrils, nipples, vulva, vagina, penis and anus, and for conditions associated with eczema, hemorrhoids, dry or aging-associated changes of the vulva and vagina."}, "nerves of the lips": {"test_system": "nerves of the lips", "assay": "Topical application of ester ointment or cream on the lips of human subjects: sensual, sensational, plumping or numbing feelings", "assay_type": "in vivo", "conditions": "for duration of the feelings of the lips / sensual, sensational or plumping feelings of the lips / time after application until the lips experienced the feelings: 10% in water-non-washable ointment, human; for feelings of the lips: cream or ointment containing 10%, topically applied to lips (general description)", "description": "The mucocutaneous organs or sites include lips, mouth, gum, nostrils, nipples, vulva, vagina, penis and anus.\nEthyl glycolate 10 g was mixed with 90 g ointment prepared from white petrolatum 50 parts, mineral oil 40 parts and white beeswax 10 parts. The composition thus prepared contained 10% ethyl glycolate in a hydrophobic ointment that was not washable with water (a water-non-washable ointment).\nA subject, topically applied the above 10% ethyl glycolate ointment on their lips.\nL-Ethyl lactate 10 g was mixed with 90 g ointment prepared from white petrolatum 50 parts, mineral oil 40 parts and white beeswax 10 parts. The composition thus prepared contained 10% L-ethyl lactate in water-non-washable ointment. A subject, topically applied the above 10% L-ethyl lactate ointment on their lips.\nDL-Diethyl malate 10 g was mixed with 90 g ointment prepared from white petrolatum 50 parts, mineral oil 40 parts and white beeswax 10 parts. The composition thus prepared contained 10% DL-diethyl malate in a water-non-washable ointment.\nA subject, topically applied the above 10% DL-diethyl malate ointment on their lips.\nD-Diethyl tartarate 10 g was mixed with 90 g ointment prepared from white petrolatum 50 parts, mineral oil 40 parts and white beeswax 10 parts. The composition thus prepared contained 10% D-diethyl tartarate in a water-non-washable ointment.\nA subject, topically applied the above 10% D-diethyl tartarate ointment on their lips.\nL-Diethyl tartarate 10 g was mixed with 90 g ointment prepared from white petrolatum 50 parts, mineral oil 40 parts and white beeswax 10 parts. The composition thus prepared contained 10% L-diethyl tartarate in a water-non-washable ointment. A subject, topically applied the above 10% L-diethyl tartarate ointment on their lips.\nTrimethyl citrate 10 g was mixed with 90 g ointment prepared from white petrolatum 50 parts, mineral oil 40 parts and white beeswax 10 parts. The composition thus prepared contained 10% trimethyl citrate in a water-non-washable ointment.\nA subject, topically applied the above 10% trimethyl citrate ointment on their lips.\nLidocaine 5 g was dissolved in warm propylene glycol 20 ml, and the solution thus obtained was mixed with 75 g ointment prepared from white petrolatum 50 parts, mineral oil 40 parts and white beeswax 10 parts. The composition thus prepared contained 5% lidocaine in a water-non-washable ointment.\nA subject, topically applied the above 5% lidocaine ointment on their lips.\nTripropyl citrate 10 g was mixed with 90 g ointment prepared from white petrolatum 50 parts, mineral oil 40 parts and white beeswax 10 parts. The composition thus prepared contained 10% tripropyl citrate in a water-non-washable ointment.\nA subject, topically applied the above 10% tripropyl citrate ointment on their lips.\nTri-isopropyl citrate 10 g was mixed with 90 g ointment prepared from white petrolatum 50 parts, mineral oil 40 parts and white beeswax 10 parts. The composition thus prepared contained 10% tri-isopropyl citrate in a water-non-washable ointment.\nA subject, topically applied the above 10% tri-isopropyl citrate ointment on their lips."}, "[2]": {"test_system": "itchy and eczematous skin (atopic eczema)", "assay": "Topical application on itching, eczematous skin of a human subject: relief of itch", "assay_type": "in vivo", "conditions": "10% in water-non-washable ointment, itching skin of right lower leg, subject with atopic eczema"}, "[3]": {"test_system": "itchy and eczematous skin (atopic eczema)", "assay": "Topical application on itching, eczematous skin of a human subject: relief of itch", "assay_type": "in vivo", "conditions": "for effect on itch associated with eczema or psoriasis / time after topical application until the itch disappears: cream or ointment containing 10%, topically applied to eczematous or psoriatic lesions (general description)", "protocol": "A composition comprising a hydroxy-oligocarboxylic ester, preferably a hydroxydicarboxylic ester, and more preferably a hydroxytricarboxylic ester, can also be topically applied to mucocutaneous or skin lesions. For example, a cream or ointment containing 10% tripropyl citrate or tri-isopropyl citrate can be topically applied to eczematous or psoriatic lesions twice daily for 4 to 16 weeks.\nTripropyl citrate 10 g and propylene glycol 20 ml were mixed with hydrophilic ointment or oil-in-water emulsion 70 g. The composition thus prepared contained 10% tripropyl citrate in water-soluble oil-in-water emulsion.\nA subject, having atopic eczema with severe itching skin, topically applied the above 10% tripropyl citrate cream on their right leg with itchy eczematous lesions. […]"}, "[4]": {"conditions": "5% in water-non-washable ointment with propylene glycol, topically applied on lips, subject"}, "[5]": {"conditions": "10% cream (water-soluble oil-in-water emulsion with propylene glycol), itchy eczematous lesions of right leg, subject with atopic eczema"}}, "note": "Where a name gives a salt, the structure may show the parent alone.", "data": [{"smiles": "CCOC(=O)C(C)O", "note": "(stereo not shown) [ethyl lactate]", "values": [{"measurement": "sensuous or mild anesthetic effect", "setting": "[1]", "result": "does not produce a sensuous or mild anesthetic effect"}]}, {"smiles": "CCN(CC)CC(=O)Nc1c(C)cccc1C", "note": "[lidocaine, Lidocaine, reference compound]", "values": [{"measurement": "duration of the numbing effect", "setting": "nerves of the lips; [4]", "result": "several"}, {"measurement": "numbing effect on the lips", "setting": "nerves of the lips; [4]", "result": "the lips felt numb"}, {"measurement": "time after application until the lips felt numb", "setting": "nerves of the lips; [4]", "result": "a few"}]}, {"smiles": "CCOC(=O)CC(O)C(=O)OCC", "note": "(racemic) [DL-diethyl malate, DL-Diethyl malate]", "values": [{"measurement": "duration of the feelings of the lips", "setting": "nerves of the lips; topically applied on lips", "result": "10 to 20", "unit": "min"}, {"measurement": "sensual, sensational or plumping feelings of the lips", "setting": "nerves of the lips; topically applied on lips", "result": "sensual and plumping feelings"}, {"measurement": "time after application until the lips experienced the feelings", "setting": "nerves of the lips; topically applied on lips", "result": "one to two"}]}, {"smiles": "COC(=O)CC(O)(CC(=O)OC)C(=O)OC", "note": "[trimethyl citrate, Trimethyl citrate]", "values": [{"measurement": "sensual, sensational or plumping feelings of the lips", "setting": "nerves of the lips; topically applied on lips", "result": "very slight sensual and plumping feelings"}, {"measurement": "time after application until the lips experienced the feelings", "setting": "nerves of the lips; topically applied on lips", "result": "one to two"}]}, {"smiles": "CCOC(=O)CO", "note": "[ethyl glycolate, Ethyl glycolate, reference compound]", "values": [{"measurement": "sensuous or mild anesthetic effect", "setting": "[1]", "result": "does not produce a sensuous or mild anesthetic effect"}, {"measurement": "sensual, sensational or plumping feelings of the lips", "setting": "nerves of the lips; topically applied on lips", "result": "no sensual or sensational feelings during the next 30 minutes"}]}, {"smiles": "CCOC(=O)CC(O)(CC(=O)OCC)C(=O)OCC", "note": "[triethyl citrate, Triethyl citrate]", "values": [{"measurement": "duration of the feelings of the lips", "setting": "nerves of the lips; topically applied on lips", "result": "20 to 30", "unit": "min"}, {"measurement": "sensual, sensational or plumping feelings of the lips", "setting": "nerves of the lips; topically applied on lips", "result": "sensual and plumping feelings"}, {"measurement": "time after application until the lips experienced the feelings", "setting": "nerves of the lips; topically applied on lips", "result": "one to two"}, {"measurement": "feelings of the lips", "setting": "nerves of the lips", "result": "sensual and sensational pleasure with very mild anesthetic effects"}, {"measurement": "effect on itch", "setting": "[2]", "result": "the itch stopped"}, {"measurement": "time after application until the itch stopped", "setting": "[2]", "result": "a few"}, {"measurement": "time the skin remained free of itch", "setting": "[2]", "result": 4, "unit": "h"}]}, {"smiles": "O=C(CC(O)(CC(=O)OCc1ccccc1)C(=O)OCc1ccccc1)OCc1ccccc1", "note": "[tribenzyl citrate, Tribenzyl citrate]", "values": [{"measurement": "sensual, sensational or plumping feelings of the lips", "setting": "nerves of the lips; topically applied on lips", "result": "slight sensual and sensational feelings"}, {"measurement": "time after application until the lips experienced the feelings", "setting": "nerves of the lips; topically applied on lips", "result": "a few"}]}, {"smiles": "CCOC(=O)[C@H](O)[C@@H](O)C(=O)OCC", "note": "[L-diethyl tartarate, L-Diethyl tartarate]", "values": [{"measurement": "duration of the feelings of the lips", "setting": "nerves of the lips; topically applied on lips", "result": "10 to 20", "unit": "min"}, {"measurement": "sensual, sensational or plumping feelings of the lips", "setting": "nerves of the lips; topically applied on lips", "result": "slight sensual and plumping feelings"}, {"measurement": "time after application until the lips experienced the feelings", "setting": "nerves of the lips; topically applied on lips", "result": "one to two"}]}, {"smiles": "CCCOC(=O)CC(O)(CC(=O)OCCC)C(=O)OCCC", "note": "[tripropyl citrate, Tripropyl citrate]", "values": [{"measurement": "sensuous and sensational effects compared with trimethyl citrate", "setting": "[1]; strength and duration, compared with trimethyl citrate", "result": "much stronger and longer-lasting sensuous and sensational effects"}, {"measurement": "effect on itch", "setting": "[3]; [5]", "result": "the itch disappeared completely"}, {"measurement": "time after application until the itch disappeared", "setting": "[3]; [5]", "result": "a few"}, {"measurement": "time the skin remained free of itch", "setting": "[3]; [5]", "result": 4, "unit": "h"}, {"measurement": "effect on itch associated with eczema or psoriasis", "setting": "[3]", "result": "usually disappears"}, {"measurement": "time after topical application until the itch disappears", "setting": "[3]", "result": "a few"}, {"measurement": "duration of the feelings of the lips", "setting": "nerves of the lips; topically applied on lips", "result": "90 to 120", "unit": "min"}, {"measurement": "sensual, sensational or plumping feelings of the lips", "setting": "nerves of the lips; topically applied on lips", "result": "sensual and sensational feelings"}, {"measurement": "time after application until the lips experienced the feelings", "setting": "nerves of the lips; topically applied on lips", "result": "a few"}, {"measurement": "feelings of the lips", "setting": "nerves of the lips", "result": "sensual and sensational pleasure with very mild anesthetic effects"}]}, {"smiles": "CC(C)OC(=O)CC(O)(CC(=O)OC(C)C)C(=O)OC(C)C", "note": "[tri-isopropyl citrate, Tri-isopropyl citrate]", "values": [{"measurement": "effect on itch associated with eczema or psoriasis", "setting": "[3]", "result": "usually disappears"}, {"measurement": "time after topical application until the itch disappears", "setting": "[3]", "result": "a few"}, {"measurement": "duration of the feelings of the lips", "setting": "nerves of the lips; topically applied on lips", "result": "about an hour"}, {"measurement": "sensual, sensational or plumping feelings of the lips", "setting": "nerves of the lips; topically applied on lips", "result": "sensual and sensational feelings"}, {"measurement": "time after application until the lips experienced the feelings", "setting": "nerves of the lips; topically applied on lips", "result": "a few"}, {"measurement": "feelings of the lips", "setting": "nerves of the lips", "result": "sensual and sensational pleasure with very mild anesthetic effects"}]}, {"smiles": "CCOC(=O)[C@H](C)O", "note": "[L-ethyl lactate, L-Ethyl lactate, reference compound]", "values": [{"measurement": "sensual, sensational or plumping feelings of the lips", "setting": "nerves of the lips; topically applied on lips", "result": "no sensual or sensational feelings during the next 30 minutes"}]}, {"smiles": "CCOC(=O)[C@@H](O)[C@H](O)C(=O)OCC", "note": "[D-diethyl tartarate, D-Diethyl tartarate]", "values": [{"measurement": "duration of the feelings of the lips", "setting": "nerves of the lips; topically applied on lips", "result": "10 to 20", "unit": "min"}, {"measurement": "sensual, sensational or plumping feelings of the lips", "setting": "nerves of the lips; topically applied on lips", "result": "slight sensual and plumping feelings"}, {"measurement": "time after application until the lips experienced the feelings", "setting": "nerves of the lips; topically applied on lips", "result": "one to two"}]}]}
